# Peptide text beside a SMILES is read from it. * marks the point of attachment. X36 = O=C1C=CC(=O)N1c1ccc(CCCCCCCCCCCC(=O)*)cc1; X39 = O=C1C=CC(=O)N1c1ccc(CCCCCCCCCCC(=O)*)cc1; X73 = O=C1C=CC(=O)N1c1ccc(CCCCCCCCCC(=O)*)cc1; X40 = O=C1C=CC(=O)N1c1ccc(CCCCCCCCC(=O)*)cc1; X44 = O=C1C=CC(=O)N1c1ccc(CCCCCCCC(=O)*)cc1; X43 = O=C1C=CC(=O)N1c1ccc(CCCCCCC(=O)*)cc1; X37 = O=C1C=CC(=O)N1c1ccc(CCCCCC(=O)*)cc1; X69 = O=C1C=CC(=O)N1c1ccc(CCCCC(=O)*)cc1; X78 = O=C1C=CC(=O)N1c1ccc(CCCC(=O)*)cc1; X56 = O=C1C=CC(=O)N1c1ccc(CCC(=O)*)cc1
# Experiment: Half-lives and pharmacokinetic parameters of polypeptides vs HM-1
# Details: in vivo; for half-life: T1/2β (half-life)
SMILES,AUC(0-inf),MRT inf,clearance,half-life
C[C@H](NC(=O)CNC(=O)[C@H](CCCNC(=N)N)NC(=O)CCc1ccc(N2C(=O)C=CC2=O)cc1)C(=O)N[C@@H](CC(=O)O)C(=O)N[C@@H](CCCNC(=N)N)C(=O)N[C@@H](C)C(=O)NCC(=O)NCC(=O)NCC(=O)NCC(=O)N[C@@H](CCCNC(=N)N)C(=O)NCC(=O)N[C@@H](CC(=O)O)C(=O)O [X38] (X56-RGADRAGGGGRGD-OH),31400 ± 7550 ng·h/mL,56.2 ± 11.2 h,0.532 mL/min/kg,38.94 ± 0.25 h
C[C@H](NC(=O)CNC(=O)[C@H](CCCNC(=N)N)NC(=O)CCCc1ccc(N2C(=O)C=CC2=O)cc1)C(=O)N[C@@H](CC(=O)O)C(=O)N[C@@H](CCCNC(=N)N)C(=O)N[C@@H](C)C(=O)NCC(=O)NCC(=O)NCC(=O)NCC(=O)N[C@@H](CCCNC(=N)N)C(=O)NCC(=O)N[C@@H](CC(=O)O)C(=O)O [X39] (X78-RGADRAGGGGRGD-OH),32800 ± 7110 ng·h/mL,58.8 ± 13.1 h,0.508 mL/min/kg,40.73 ± 0.28 h
C[C@H](NC(=O)CNC(=O)[C@H](CCCNC(=N)N)NC(=O)CCCCc1ccc(N2C(=O)C=CC2=O)cc1)C(=O)N[C@@H](CC(=O)O)C(=O)N[C@@H](CCCNC(=N)N)C(=O)N[C@@H](C)C(=O)NCC(=O)NCC(=O)NCC(=O)NCC(=O)N[C@@H](CCCNC(=N)N)C(=O)NCC(=O)N[C@@H](CC(=O)O)C(=O)O [X40] (X69-RGADRAGGGGRGD-OH),34000 ± 7830 ng·h/mL,60.9 ± 10.7 h,0.49 mL/min/kg,42.23 ± 0.27 h
C[C@H](NC(=O)CNC(=O)[C@H](CCCNC(=N)N)NC(=O)CCCCCc1ccc(N2C(=O)C=CC2=O)cc1)C(=O)N[C@@H](CC(=O)O)C(=O)N[C@@H](CCCNC(=N)N)C(=O)N[C@@H](C)C(=O)NCC(=O)NCC(=O)NCC(=O)NCC(=O)N[C@@H](CCCNC(=N)N)C(=O)NCC(=O)N[C@@H](CC(=O)O)C(=O)O [X41] (X37-RGADRAGGGGRGD-OH),26500 ± 7810 ng·h/mL,47.5 ± 13.9 h,0.628 mL/min/kg,32.9 ± 0.36 h
C[C@H](NC(=O)CNC(=O)[C@H](CCCNC(=N)N)NC(=O)CCCCCCc1ccc(N2C(=O)C=CC2=O)cc1)C(=O)N[C@@H](CC(=O)O)C(=O)N[C@@H](CCCNC(=N)N)C(=O)N[C@@H](C)C(=O)NCC(=O)NCC(=O)NCC(=O)NCC(=O)N[C@@H](CCCNC(=N)N)C(=O)NCC(=O)N[C@@H](CC(=O)O)C(=O)O [X42] (X43-RGADRAGGGGRGD-OH),27100 ± 8010 ng·h/mL,48.5 ± 10.6 h,0.615 mL/min/kg,33.58 ± 0.24 h
C[C@H](NC(=O)CNC(=O)[C@H](CCCNC(=N)N)NC(=O)CCCCCCCc1ccc(N2C(=O)C=CC2=O)cc1)C(=O)N[C@@H](CC(=O)O)C(=O)N[C@@H](CCCNC(=N)N)C(=O)N[C@@H](C)C(=O)NCC(=O)NCC(=O)NCC(=O)NCC(=O)N[C@@H](CCCNC(=N)N)C(=O)NCC(=O)N[C@@H](CC(=O)O)C(=O)O [X43] (X44-RGADRAGGGGRGD-OH),26700 ± 7420 ng·h/mL,47.8 ± 9.93 h,0.623 mL/min/kg,33.14 ± 0.31 h
C[C@H](NC(=O)CNC(=O)[C@H](CCCNC(=N)N)NC(=O)CCCCCCCCc1ccc(N2C(=O)C=CC2=O)cc1)C(=O)N[C@@H](CC(=O)O)C(=O)N[C@@H](CCCNC(=N)N)C(=O)N[C@@H](C)C(=O)NCC(=O)NCC(=O)NCC(=O)NCC(=O)N[C@@H](CCCNC(=N)N)C(=O)NCC(=O)N[C@@H](CC(=O)O)C(=O)O [X44] (X40-RGADRAGGGGRGD-OH),26800 ± 8440 ng·h/mL,48 ± 11.6 h,0.622 mL/min/kg,33.26 ± 0.28 h
C[C@H](NC(=O)CNC(=O)[C@H](CCCNC(=N)N)NC(=O)CCCCCCCCCc1ccc(N2C(=O)C=CC2=O)cc1)C(=O)N[C@@H](CC(=O)O)C(=O)N[C@@H](CCCNC(=N)N)C(=O)N[C@@H](C)C(=O)NCC(=O)NCC(=O)NCC(=O)NCC(=O)N[C@@H](CCCNC(=N)N)C(=O)NCC(=O)N[C@@H](CC(=O)O)C(=O)O [X45] (X73-RGADRAGGGGRGD-OH),24300 ± 8330 ng·h/mL,43.5 ± 12 h,0.685 mL/min/kg,30.15 ± 0.26 h
C[C@H](NC(=O)CNC(=O)[C@H](CCCNC(=N)N)NC(=O)CCCCCCCCCCc1ccc(N2C(=O)C=CC2=O)cc1)C(=O)N[C@@H](CC(=O)O)C(=O)N[C@@H](CCCNC(=N)N)C(=O)N[C@@H](C)C(=O)NCC(=O)NCC(=O)NCC(=O)NCC(=O)N[C@@H](CCCNC(=N)N)C(=O)NCC(=O)N[C@@H](CC(=O)O)C(=O)O [X46] (X39-RGADRAGGGGRGD-OH),31600 ± 7470 ng·h/mL,56.6 ± 11 h,0.527 mL/min/kg,39.23 ± 0.29 h
C[C@H](NC(=O)CNC(=O)[C@H](CCCNC(=N)N)NC(=O)CCCCCCCCCCCc1ccc(N2C(=O)C=CC2=O)cc1)C(=O)N[C@@H](CC(=O)O)C(=O)N[C@@H](CCCNC(=N)N)C(=O)N[C@@H](C)C(=O)NCC(=O)NCC(=O)NCC(=O)NCC(=O)N[C@@H](CCCNC(=N)N)C(=O)NCC(=O)N[C@@H](CC(=O)O)C(=O)O [X47] (X36-RGADRAGGGGRGD-OH),33200 ± 7130 ng·h/mL,59.4 ± 12 h,0.502 mL/min/kg,41.19 ± 0.27 h

# Source: patent US20200270309A1, “MALEIMIDE GROUP-MODIFIED ANGIOGENESIS INHIBITOR HM-1 AND USE THEREOF” (NANJING ANJI BIOLOGICAL TECHNOLOGY CO., LTD, priority 2017, published 2020)
